Laboratory results taken from BindingDB's records for doi:10.1021/jm00006a007 (Parke-Davis Pharmaceutical Research, 1995).

Biological target: T1, Dimer of Gag-Pol polyprotein [489-587] (Human immunodeficiency virus 1, UniProt P12497)
T1 construct: 489-587
Assay: Protease Inhibition Assay
Details: pH 4.7; 37 °C
Experimental: For determination of IC50 values, HIV-1 protease was added to assay buffer containing inhibitor and the substrate (H-His-Lys-Ala-Arg-Val-Leu- (p-NO2) Phe-Glu-Ala-norleucine-Ser-NH2). The Leu- (p-NO2) Phe bond of the substrate was cleaved by the enzyme, and the substrate and products were separated by reversed-phase HPLC. Absorbance was measured at 220 nm, peak areas were determined, and percentage conversion to product was calculated.

SMILES	IC50 [nM]	Ki [nM]
O=c1oc(-c2ccccc2)cc(O)c1C(Sc1ccccc1)c1ccc2ccccc2c1 (racemic) [4-hydroxy-3-[naphthalen-2-yl(phenylsulfanyl)methyl]-6-phenyl-2H-pyran-2-one]	7820	–
CC(C)CC(SC1CCCC1)c1c(O)cc(-c2ccccc2)oc1=O (racemic) [(+/-)-3-[1-(Cyclopentylthio)-3-methylbutyl]-4-hydroxy-6-phenyl-2H-pyran-2-one]	–	33
O=c1oc(-c2ccccc2)cc(O)c1C(Sc1ccc2ccccc2c1)c1ccccc1 (racemic) [4-hydroxy-3-[(naphthalen-2-ylsulfanyl)(phenyl)methyl]-6-phenyl-2H-pyran-2-one]	2450	–
O=c1oc(-c2ccccc2)cc(O)c1C(CC1CC1)SC1CCCCC1 (racemic) [3-[1-(cyclohexylsulfanyl)-2-cyclopropylethyl]-4-hydroxy-6-phenyl-2H-pyran-2-one]	147	–
O=c1oc(-c2ccccc2)cc(O)c1C(SC1CCCCC1)c1ccccc1 (stereo not drawn) [3-[(cyclohexylsulfanyl)(phenyl)methyl]-4-hydroxy-6-phenyl-2H-pyran-2-one]	480	–
O=c1oc(-c2ccccc2)cc(O)c1C(CC1CC1)SC1CCCC1 (racemic) [3-[1-(cyclopentylsulfanyl)-2-cyclopropylethyl]-4-hydroxy-6-phenyl-2H-pyran-2-one]	69	–
O=c1oc(-c2ccccc2)cc(O)c1C(SC1CCCC1)C1CCCC1 (racemic) [3-[cyclopentyl(cyclopentylsulfanyl)methyl]-4-hydroxy-6-phenyl-2H-pyran-2-one]	225	–
O=c1oc(-c2ccccc2)cc(O)c1C(CC1CC1)SCc1ccccc1 (racemic) [3-[1-(benzylsulfanyl)-2-cyclopropylethyl]-4-hydroxy-6-phenyl-2H-pyran-2-one]	84	–
O=c1oc(-c2ccccc2)cc(O)c1C(SCc1ccccc1)c1ccccc1 (racemic) [3-[(benzylsulfanyl)(phenyl)methyl]-4-hydroxy-6-phenyl-2H-pyran-2-one]	480	–
O=c1oc(-c2ccccc2)cc(O)c1C(Sc1ccccc1)c1ccccc1 (racemic) [(+/-)-4-Hydroxy.6-phenyl-3-[phenyl(phenylthio)methyl]-2H-pyran-2-one]	780	–
O=c1oc(-c2ccccc2)cc(O)c1C(Sc1ccccc1)C1CCCCC1 (racemic) [(+/-)-3-[Cyclohexyl(phenylthio)methyl]-4-hydroxy-phenyl-2H-pyran-2-one]	2440	–
O=c1oc(-c2ccccc2)cc(O)c1CSc1ccccc1 [4-hydroxy-6-phenyl-3-[(phenylsulfanyl)methyl]-2H-pyran-2-one]	84300	–
O=c1oc(-c2ccccc2)cc(O)c1C(CC1CCCC1)SC1CCCCC1 (racemic) [3-[1-(cyclohexylsulfanyl)-2-cyclopentylethyl]-4-hydroxy-6-phenyl-2H-pyran-2-one]	541	–
